Read-outs that look alike come from different tables or passages of the source.
Legend:
[1] = tested on: bFGF-induced angiogenesis in the CAM model; assay: bFGF (FGF2)-stimulated CAM model; assay type: in vivo, chicken; conditions: bFGF/FGF2 1 ug, 30 ug injected; for inhibition in vivo at 0.03 mg: Gallus gallus, read-out: % Inhibition ± SEM
Experimental: In vivo neovascularization was examined by the method previously described by Auerbach et al. (J. Dev. Biol. 41:391-394 (1974)). Ten-day old chicken embryos were purchased from Spafas, Inc. (Preston, Conn.) and were incubated at 37° C. with 55% relative humidity. In the dark, with the aid of a candling lamp, a small hole was punctured in the shell concealing the air sac with a hypodermic needle. A second hole was punctured in the shell on the broadside of the egg directly over an […] portion of the embryonic membrane, as observed during candling. An artificial air sac was created beneath the second hole by applying gentle vacuum to the first hole using a small rubber squeeze bulb. The vacuum caused the chorioallantoic membrane (CAM) to separate from the shell.
For inducing angiogenesis, sterile filter disks were saturated with bFGF (1 μg/ml) (Life Technologies, Gaithersburg, Md.) or other pro-angiogenesis factors and control disks were saturated with PBS without Calcium and Magnesium. Control disks were saturated with PBS without Calcium and Magnesium.
After 24-48 hr, 10-25 ul of test agent was injected intravenously or added topically into the CAM membrane. Eight-Ten eggs/treatment group were used.
The number of vessel branch points contained in a circular region equal to the area of a filter disk was counted for each section. Percent inhibition data are expressed as the quotient of the experimental value minus the negative control value divided by the difference between the positive control value and the negative control value. One image was counted in each CAM preparation, and findings from eight CAM preparations were analyzed for each treatment condition. In addition, each experiment was performed three times. The resulting angiogenesis index is the mean ±SEM (Standard Error of Measurement) of new branch points in each set of treatment. Statistical analysis of blood vessel branching patterns are performed by 1-way analysis of variance (ANOVA) comparing experimental with corresponding control groups. Statistical significance differences are assessed at P value of <0.05.
The CAM model protocol was modified to include stimulus with bFGF. The effect of injected OT 551 was assayed.
TP-H was applied to the CAM model study to determine its respective anti-angiogenesis effects according to the materials and methods provided in Example 1. Basic Fibroblast Growth Factor (bFGF) was used to induce angiogenesis in the CAM model.
Compounds were introduced via injection to the CAM model study to determine its respective anti-angiogenesis effects according to the materials and methods provided in Example 1. bFGF was used to induce angiogenesis in the CAM model.

[2] = tested on: Doxorubicin resistant SaOS2 cells; assay: Cancer cell viability (MTT) in the presence or absence of doxorubicin; assay type: cell-based, human; conditions: compound 50 ug/mL, 3 days
TNFα = assay: Measurement of LPS Induced-TNFα in THP-1 Cells; assay type: cell-based, human; conditions: Homo sapiens
Experimental: The lipid peroxidation assay method of Ohkawa, H.; Ohishi, N.; Yaki, K. Anal. Biochem. 1979, 95, 351 was used to evaluate […]. […] […] Cells were collected and spun at 1500 g for 10 minutes. Supernatant was collected and analyzed for TNFα.
Mean Percent Inhibition of TNF-alpha by compounds of the present invention is set forth in Table B. TNF-alpha inhibition data is set forth in Table B-1. OT-551 was used in both native form and in the form of nanoparticles. […] Other nitrogenous heterocyclic species of the invention are expected to show similar improvement in efficacy when disposed in nanoparticulate form.

Lipid peroxidation = Lipid peroxidation inhibition (method of Ohkawa); assay type: biochemical; conditions: for Lipid Peroxidation Inhibition, % Inhibition: 10 uM
[3] = tested on: Human whole blood clot formation
Experimental: TEG: Human whole blood (±drugs) was added to the cylindrical cuvette (“cup”). […] The cup oscillates 4°45′ ( 1/12 radian) in either direction every 4.5 seconds, with a 1-second mid-cycle stationary period, resulting in a frequency of 0.1 Hz and a maximal shear rate of 0.1 per second. The pin was suspended by a torsion wire that acts as a torque transducer. […] The torque experienced by the pin (relative to the oscillation of the cup) was plotted as a function of time (Forsythe, S. A. M. S. K. M. S. (2000): “Comparative In Vitro Efficacy of Different Platelet Glycoprotein IIb/IIIa Antagonists on Platelet-Mediated Clot Strength Induced by Tissue Factor With Use of Thromboelastography.” Arteriosclerosis, Thrombosis, and Vascular Biology 20: 1162).
(Data represent mean ±SD, n=6 (blood form normal healthy volunteers), *P<0.01 as compared to control)

[4] = THP-1, compound 10 uM, 5 ng/mL LPS, read-out: Mean Percent Inhibition of TNF-alpha using 5 ng/mL LPS
[5] = TEG, human whole blood, Bevacizumab 1 ng/cup, Comp. 4 0 uM, *P<0.01 vs control

COC1CC(C)(C)N(O)C(C)(C)C1.Cl [Compound 1, 1-hydroxy-4-methoxy-2,2,6,6-tetramethylpiperidine hydrogen chloride]
inhibition in vivo at 0.03 mg [1]: 89.9 ± 18% | Branch pts ± SEM [1]: 74 ± 8.6 | Mean OD (×10^−3), MTT viability ([2]; Dox. 10^−6 M (+)): 246.50 ×10^−3 | Mean OD (×10^−3), MTT viability ([2]; absence of Dox. (−)): 524.75 ×10^−3 | inhibition at 10 µM (TNFα; [4]): 50 ± 9% | IC50 (TNFα; THP-1, read-out: TNFalpha IC50): 16.8 µM | % Lipid Peroxidation inhibition (at 1 uM) (Lipid peroxidation): 74.1% | Lipid Peroxidation Inhibition, % Inhibition (Lipid peroxidation): 90.8%

CC(=O)NC1CC(C)(C)N(O)C(C)(C)C1.Cl [Compound 2, 1-hydroxy-4-acetamido-2,2,6,6-tetramethylpiperidine]
inhibition in vivo at 0.03 mg [1]: 76.4 ± 9.9% | Branch pts ± SEM [1]: 84.7 ± 11.1 | Mean OD (×10^−3), MTT viability ([2]; Dox. 10^−6 M (+)): 249.25 ×10^−3 | Mean OD (×10^−3), MTT viability ([2]; absence of Dox. (−)): 496.33 ×10^−3 | inhibition at 10 µM (TNFα; [4]): 64 ± 5% | IC50 (TNFα; THP-1, read-out: TNFalpha IC50): 17 µM | Lipid Peroxidation Inhibition, % Inhibition (Lipid peroxidation): 81.0% | melting point: 180.5 °C (dec.)

CC1(C)CC(N2CCOCC2)CC(C)(C)N1O.Cl [Compound 3, 4-(2,2,6,6-tetramethylpiperidin-1-hydroxy-4-yl)morpholine hydrogen chloride]
inhibition in vivo at 0.03 mg [1]: 54.7 ± 7.9% | Branch pts ± SEM [1]: 95.1 ± 5.6 | Mean OD (×10^−3), MTT viability ([2]; Dox. 10^−6 M (+)): 289.50 ×10^−3 | Mean OD (×10^−3), MTT viability ([2]; absence of Dox. (−)): 640.25 ×10^−3 | inhibition at 10 µM (TNFα; [4]): 60 ± 2% | IC50 (TNFα; THP-1, read-out: TNFalpha IC50): 11.6 µM | Lipid Peroxidation Inhibition, % Inhibition (Lipid peroxidation): 77.8%

CC1(C)CC(=O)CC(C)(C)N1O [Compound 5, 1-Hydroxy-2,2,6,6-tetramethyl-piperidin-4-one]
inhibition in vivo at 0.03 mg [1]: 26.5 ± 7.9% | Branch pts ± SEM [1]: 86.1 ± 9.8 | Mean OD (×10^−3), MTT viability ([2]; Dox. 10^−6 M (+)): 245.50 ×10^−3 | Mean OD (×10^−3), MTT viability ([2]; absence of Dox. (−)): 556.50 ×10^−3 | inhibition at 10 µM (TNFα; THP-1, read-out: Mean Percent Inhibition of TNF-alpha using 5 ng/mL LPS): 66 ± 7% | IC50 (TNFα; THP-1, read-out: TNFalpha IC50 (uM)): 22.2 µM | % Lipid Peroxidation inhibition (at 1 uM) (Lipid peroxidation): 71.0% | Lipid Peroxidation Inhibition, % Inhibition (Lipid peroxidation): 86.3%

CC1C(O)C(C)C(C)(C)N(O)C1(C)C.Cl (centres unmarked) [Compound 6, 2,2,3,5,6,6-Hexamethyl-piperidine-1,4-diol hydrogen chloride salt]
inhibition in vivo at 0.03 mg [1]: 40.4 ± 9.3% | Branch pts ± SEM [1]: 78.6 ± 7.3 | Mean OD (×10^−3), MTT viability ([2]; Dox. 10^−6 M (+)): 185.25 ×10^−3 | Mean OD (×10^−3), MTT viability ([2]; absence of Dox. (−)): 367.00 ×10^−3 | inhibition at 10 µM (TNFα; [4]): 54 ± 6% | IC50 (TNFα; THP-1, read-out: TNFalpha IC50): 29.4 µM | % Lipid Peroxidation inhibition (at 1 uM) (Lipid peroxidation): 70.5% | Lipid Peroxidation Inhibition, % Inhibition (Lipid peroxidation): 89.0% | melting point: 191.5 °C (dec.)

CC1(C)CC(O)C(C)(C)N1O (centres unmarked) [Compound 7, 2,2,5,5-Tetramethyl-pyrrolidine-1,3-diol]
inhibition in vivo at 0.03 mg [1]: 124 ± 8.4% | Branch pts ± SEM [1]: 40.8 ± 9.7 | Mean OD (×10^−3), MTT viability ([2]; Dox. 10^−6 M (+)): 241.25 ×10^−3 | Mean OD (×10^−3), MTT viability ([2]; absence of Dox. (−)): 540.25 ×10^−3 | inhibition at 10 µM (TNFα; [4]): 69 ± 2% | IC50 (TNFα; THP-1, read-out: TNFalpha IC50): 44.9 µM | Lipid Peroxidation Inhibition, % Inhibition (Lipid peroxidation): 82.9%

CC1(C)CC(NS(C)(=O)=O)CC(C)(C)N1O [Compound 10, 1-hydroxy-4-methanesulfonamido-2,2,6,6-tetramethylpiperidine]
inhibition in vivo at 0.03 mg [1]: 78.2 ± 9.9% | Branch pts ± SEM [1]: 60.4 ± 5.0 | Mean OD (×10^−3), MTT viability ([2]; Dox. 10^−6 M (+)): 250.00 ×10^−3 | Mean OD (×10^−3), MTT viability ([2]; absence of Dox. (−)): 456.00 ×10^−3 | IC50 (TNFα; THP-1, read-out: TNFalpha IC50): ≥ 100 µM | Lipid Peroxidation Inhibition, % Inhibition (Lipid peroxidation): 85.8%

CC1(C)CC(NC(=O)N2CCOCC2)CC(C)(C)N1O.Cl [Compound 11, N-(2,2,6,6-tetramethylpiperidin-1-hydroxyl-4-yl)morpholine-4-carboxamide hydrogen chloride]
inhibition in vivo at 0.03 mg [1]: 71 ± 8.8% | Branch pts ± SEM [1]: 64.0 ± 5.1 | Mean OD (×10^−3), MTT viability ([2]; Dox. 10^−6 M (+)): 267.25 ×10^−3 | Mean OD (×10^−3), MTT viability ([2]; absence of Dox. (−)): 470.25 ×10^−3 | inhibition at 10 µM (TNFα; [4]): 24 ± 5% | IC50 (TNFα; THP-1, read-out: TNFalpha IC50): 20.7 µM | Lipid Peroxidation Inhibition, % Inhibition (Lipid peroxidation): 82.7% | melting point: 158.1 °C (dec.)

Bevacizumab: a monoclonal antibody against vascular endothelial growth factor used to treat cancer by inhibiting angiogenesis [reference compound]
MA in comparison to native blood [3]: approximately six times larger MA | initiation of clot formation in comparison to native blood [3]: approximately two to three fold faster | Clot Strength - MA [3, 5]: 33.8 ± 5.6* mm | Time to Clot Initiation R [3, 5]: 7.8 ± 1.1* min

Reference: patent US20080200405A1, “Drug Resistance Reversal In Neoplastic Disease” (priority 2007, published 2008)
